The NIST ThermoML archive (doi:10.1021/je3007138)
Numbers after ± are expanded uncertainties.

Details: 351.2 K; Liquid; Ebulliometric method (Recirculating still)

- vapor or sublimation pressure: 101.3 ± 3 kPa
SMILES: CCO [ethanol]
